# In patent US20030220402A1, “Cancer remedy comprising anthranilic acid derivatives as active ingredients” (priority 2000, published 2003):
# Test system: L929 cells
# Experiment: Measurement of cytotoxicity using mouse tumorous cells L929 (Neutral Red assay)
# Assay type: cell-based
# Settings: 3 days culture, concentration manifesting 50% cytotoxicity
# Protocol: Measurement of Cytotoxicity Using Mouse Tumorous Cells L929
# The cytotoxic activity against tumorous cells was measured according to a Neutral Red assay method [the method described in Journal of Tissue Culture Methodology, vol. 9, p. […] 24, p. […] Namely, 100 μL each of L929 cells (5×10^4 cells/mL, 10% FCS/RPM1) was added to a 96-well ELISA plate, and the cells were cultured overnight. The test compound at each measuring concentration was dissolved in a DMSO solution and added, and culturing was further continued for 3 days. To the cultured cells, was then added 2.0 μL of Neutral Red so as to provide the final concentration of 0.01%. Incubation was conducted at 37° C. for 1 hour, and the cell culture supernatant was removed. The resultant cultured cells were washed with […] of PBS twice to remove the excessive Neutral Red. To the washed cells, was then added 100 μL of a 50% ethanol-1% aqueous acetic acid. The dye incorporated in the cells was extracted, and the amount of the dye was determined by measuring the absorbance at 490 nm. The case where a drug was not added was taken as 100%, and the cytotoxicity was determined at the concentrations of the respective test compounds. […] The measurements under the same conditions in two sets each were made, and the data were, obtained from the average values.
row,Structure (SMILES),LD50
1,"O=C(Cc1ccc(Oc2ccc3ccccc3c2)cc1)Nc1ccccc1C(=O)O [Compound No. 59, 2-(4-(2-naphthyloxy)phenylacetamido)benzoic acid]",1.6 µM
2,"COC(=O)c1ccccc1NC(=O)Cc1ccc(Oc2ccc(O)cc2)cc1 [Compound No. 296, methyl 2-(4-(4-hydroxyphenoxy)phenylacetamido)benzoate]",>5 µM
3,"O=C(Cc1ccc(Oc2ccc(OCc3ccccc3)cc2)cc1)Nc1ccccc1C(=O)O [Compound No. 316, 2-(4-(4-benzyloxyphenoxy)phenylacetamido)benzoic acid]",0.60 µM
4,"O=C(Cc1ccc(Oc2ccc(OC3CCCCC3)cc2)cc1)Nc1ccccc1C(=O)O [compound 288, 2-(4-(4-cyclohexyloxyphenoxy)phenylacetamido)benzoic acid]",0.20 µM
